Where “and” joins values, the source holds several entries; their conditions need not be identical. Equal values may be shown once.
What was measured:
[1] = molecular target: T1, β-galactosidase (Escherichia coli, UniProt P00722); test: Droplet microfluidic IC50 measurement, on-chip serial dilution network with scanning chamber (Example 1d), RBG substrate; assay type: biochemical; design: purchased Sigma-Aldrich Co; conditions: 75 s droplet incubation, 4-parameter log-logistic fit, read-out: IC50 of PETG in the enzyme/substrate/inhibitor system
Procedure: In the examples, the model systems comprised an enzyme, a substrate, and an inhibitor for IC50 measurements and an enzyme and substrate alone for KM measurements. In all cases the enzyme was β-galactosidase (Sigma-Aldrich Co.), the substrate was resorufin β-D-galactopyranoside (RBG; Invitrogen Corporation), and the inhibitor was phenylethyl β-D-thiogalactopyranoside (PETG; Invitrogen Corporation).
An aqueous phase of 120 μM PETG (the inhibitor) and 100 μM sodium fluorescein in PBS were injected into the ‘compound’ input of the micro fluidic device (FIG. 4) at a flow rate of 111 μl/hr. A second aqueous phase, PBS, was injected into the ‘diluent’ input at a flow rate of 389 μl/hr. […]
A series of microdroplets were created containing PETG (and sodium fluorescein) at different concentrations: from zero to 30 μM (25 μM sodium fluorescein) and then from 30 μM to zero. […] The amounts of fluorescent resorufin (liberated by β-galactosidase activity) and sodium fluorescein were measured for each droplet by monitoring fluorescence intensity in the 590-625 and 500-520 nm channels, respectively.
About 10^5 microdroplets were plotted in an XY graph with initial reaction rate (inferred from resorufin fluorescence after 75 seconds of droplet incubation) against inhibitor concentration (assumed to be proportional to sodium fluorescein fluorescence). […]
Target sequence in this assay (P00722 2-1024 limits assumed): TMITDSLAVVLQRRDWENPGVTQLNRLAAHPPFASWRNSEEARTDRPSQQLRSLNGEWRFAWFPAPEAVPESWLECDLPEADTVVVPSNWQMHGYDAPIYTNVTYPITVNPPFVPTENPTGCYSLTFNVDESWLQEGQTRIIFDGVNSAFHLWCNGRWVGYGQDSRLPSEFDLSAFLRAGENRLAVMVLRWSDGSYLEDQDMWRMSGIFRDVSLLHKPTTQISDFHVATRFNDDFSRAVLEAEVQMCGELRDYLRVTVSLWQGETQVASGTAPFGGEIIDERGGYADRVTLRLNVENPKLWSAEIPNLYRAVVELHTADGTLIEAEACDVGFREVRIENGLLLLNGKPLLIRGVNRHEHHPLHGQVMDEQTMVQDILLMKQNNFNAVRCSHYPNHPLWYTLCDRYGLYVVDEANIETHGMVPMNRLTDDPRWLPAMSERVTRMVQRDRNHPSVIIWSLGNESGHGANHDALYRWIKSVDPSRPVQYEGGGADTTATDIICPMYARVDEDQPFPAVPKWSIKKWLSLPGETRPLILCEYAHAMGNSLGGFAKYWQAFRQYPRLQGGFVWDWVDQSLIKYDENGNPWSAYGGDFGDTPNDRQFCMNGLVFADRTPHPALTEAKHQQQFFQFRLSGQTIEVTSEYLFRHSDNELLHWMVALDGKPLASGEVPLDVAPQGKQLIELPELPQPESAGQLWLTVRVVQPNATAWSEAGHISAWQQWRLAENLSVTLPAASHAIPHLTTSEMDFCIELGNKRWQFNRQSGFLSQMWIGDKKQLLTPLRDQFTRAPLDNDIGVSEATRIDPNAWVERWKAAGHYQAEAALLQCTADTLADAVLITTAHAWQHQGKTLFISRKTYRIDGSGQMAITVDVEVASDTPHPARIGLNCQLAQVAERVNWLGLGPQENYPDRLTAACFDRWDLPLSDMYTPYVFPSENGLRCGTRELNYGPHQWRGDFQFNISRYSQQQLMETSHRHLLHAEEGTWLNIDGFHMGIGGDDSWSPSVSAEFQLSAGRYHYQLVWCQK

[2] = molecular target: T1, β-galactosidase; test: Standard microplate assay (Example 1 comparison values); assay type: biochemical; design: purchased Sigma-Aldrich Co; conditions: read-out: IC50 of PETG measured in a standard microplate assay
Target sequence in this assay (P00722 2-1024 limits assumed): as above

[3] = molecular target: T1, β-galactosidase; test: High-resolution dose-response screening of β-galactosidase inhibition in droplets (Example 2), FDG substrate; assay type: biochemical, E. coli; design: purchased Grade VIII; conditions: for IC50: 4-parameter Hill fit
Procedure: PBS was pumped through the autosampler at a rate of 200 μl/hour. On-chip, this flow was combined with solutions of enzyme and substrate, both flowing at 100 μl/hour. The enzyme solution was 20 U/ml of E. coli Grade VIII β-galactosidase in PBS containing 4 g/l BSA. The substrate solution was 240 μM FDG and 400 nM sodium fluorescein in PBS. The combined aqueous flow was segmented into droplets by the oil/surfactant solution flowing at a rate of 400 μl/hour. The optical setup was positioned just before the delay line and individual droplets were discriminated by green fluorescence. The measurement at this point provided a “pseudo blank” (no enzyme activity, equivalent to 100% inhibition) for the inhibition calculations later on: droplets with zero activity were not observed to change fluorescence between production and any measurement point in the delay line (FIG. 17).
The optical setup was repositioned to the 30-second measurement point and the droplets were analyzed continuously. Meanwhile, the autosampler was used to load 1 μl from each well of a 96-well plate into the PBS stream running through the dispersion capillary. Each well contained 20 μl of 100 μM DY-682 in PBS, plus one of four different concentrations of the inhibitor 2-phenylethyl β-D-thiogalactoside (PETG; Invitrogen Corp., California, USA): 600 μM (“high”), 120 μM (“medium”), 24 μM (“low”), or zero. As each Gaussian-like pulse of DY-682 and PETG, mixed with the reaction components and segmented into droplets, arrived at the optical detector, a dose-response profile was recorded.
Offline, a Python script was used to group the droplets in the front edge of each Gaussian-like pulse by injection (˜10,000 droplets); these droplets are referred to as the injection's “dose-response droplets”. 1 second's worth of droplets directly preceding each Gaussian-like pulse were also stored (˜800 droplets). The mean green fluorescence of these droplets provided the “control” value (0% inhibition) for the injection and this value was used with the pseudo blank value (corresponding to 100% inhibition) to calculate the percentage inhibition in the subsequent dose-response droplets. […] The corrected green signal was then used to calculate the proportion of inhibition (I) in each droplet using the following equation: […]
where M is corrected measured fluorescence, B is the pseudo blank value, and C is the control value. In parallel, the NIR fluorescence signal for each droplet was used to calculate the concentration of co-injected compound. […]
For each of the 16 “medium” injections the quality of the assay was determined by calculating the Z-factor (Zhang et al., 1999).
Target sequence in this assay (P00722 2-1024): as the sequence (P00722 2-1024 limits assumed) above

Structure (SMILES): OC[C@H]1O[C@@H](SCCc2ccccc2)[C@H](O)[C@@H](O)[C@H]1O [PETG, phenylethyl β-D-thiogalactopyranoside]
- IC50 [1]: 2210 nM and 3040 nM
- IC50 [2]: 1430 nM
- inhibition ([3]; droplets containing 50 μM PETG): 97.5%
- IC50 ([3]; mean IC50, high (600 μM) injected PETG): 1980 nM
- IC50 ([3]; mean IC50, low (24 μM) injected PETG): 1980 nM
- IC50 ([3]; mean IC50, medium (120 μM) injected PETG, n=16): 2060 nM
